Patent EP1534672B1, “RETINOL DERIVATIVES, THEIR USE IN THE TREATMENT OF CANCER AND FOR POTENTIATING THE EFFICACY OF OTHER CYTOTOXIC AGENTS” (priority 2002, dated 2004)
Several values for one entry are separate records, joined by “and”; a condition that tells them apart may be missing. Equal entries are not always repeated. Where two headings read alike, the source gives them in different places. Marks after values point to notes of the source that are not given here.

Key:
[1] = single dose i.p. toxicity study in rats
Experimental: (§1) A single dose i.p. toxicity study in rats was carried out. […] The minimal lethal dose is thus above 100 mg/kg body weight for these compounds.

[2] = test system: Human Breast Adenocarcinoma Cell Line MDA-MB-231; assay: Drug cytotoxicity testing (viable cell count, trypan blue exclusion, cell growth inhibition); format: cell-based
Outline: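 A549 cells (10 × 10^3/well) and MDA-MB-231 cells (12 × 10^3/well) were left to adhere for 24 h, then exposed to drugs in medium with 5% FBS for 2 days. Viable cells were counted by trypan blue exclusion after trypsinization. Growth inhibition (%) = (control − test)/control × 100, from three determinations in six replicates each.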

[3] = test system: Human Ovary Adenocarcinoma Cell Line SKOV-3; assay: as above; format: cell-based; settings: alone or in formulation at molar ratio 1:6
Experimental: MDA-MB-231 cells were propagated in MEM culture medium with 2 mM L-glutamine, 10% heat-inactivated fetal bovine serum (FBS) and antibiotics. DU 145 cells were cultured in MEM culture medium containing 2 mM L-glutamine, 1 mM sodium pyruvate, 10% FBS and antibiotics. SKOV-3 cells were cultured in McCoy's 5A culture medium, supplemented with 1,5 mM L-glutamine, 10% FBS and antibiotics. A549 cells were cultured in Ham's F-12 culture medium with 1 mM L-glutamine, 10% FBS and antibiotics. All media and supplements were purchased from Sigma-Aldrich (St.Louis, MO, USA). Cell propagation of all lines was carried out in Falcon™ 25 cm^2 cultivation flasks (Becton Dickinson Labware).
Drug cytotoxicity testing was carried out with using Falcon™ 96-well cultivation plates for adherent cells (Becton Dickinson Labware). These plates were seeded by cells either at 12 × 10^3 MDA-MB-231 cells/well, or at 12 × 10^3 DU 145 cells/well, or at 14 × 10^3 SKOV-3 cells/well, or at 10 × 10^3 A549 cells/well in a volume of 200 µL/well.
The cell cultures in cultivation plates were allowed to adhere for 24 hour of incubation. On day 1 after cell seeding, 2 µL solutions of the drugs to be tested in medium with 5% FBS was added to the cultures. In the control cultures, 2 µL of medium with 5% FBS was added as solvent control. The cells were incubated for 2 consecutive days. At the end of the incubation period adherent cells were detached by trypsinization and the number of viable cells was counted using trypan blue exclusion test and a hemocytometer. All data were derived from an average of three determinations each in six replicates. The results were expressed as mean cell number ± SE and the differences between control and test series evaluated by means of Student's t-test. The drug cytotoxicity was evaluated based on the extent of cell growth inhibition. The cell growth inhibition of the tested drugs was calculated as follows: Cell growth inhibition,% = (Control-TestSeries)/(Control) × 100 [formula]

[4] = test system: Human Lung Carcinoma Cell Line A549; assay: as above; format: cell-based
[5] = rat, in vivo, ip
Experimental: as §1

[6] = cytotoxic drug alone 10^-8 mol/L, average of positive controls in medium with 5% FBS, normal saline and saline with 2,3 mM CaCl2
[7] = cytotoxic drug alone 10^-9 mol/L, average of positive controls in medium with 5% FBS, normal saline and saline with 2,3 mM CaCl2
[8] = compound alone 10^-7 mol/L, in B (normal saline)
[9] = compound alone 10^-8 mol/L, in B (normal saline)
[10] = compound alone 10^-9 mol/L, in B (normal saline)
[11] = sodium salt, range 10^-9 to 10^-7 M

CC1=C(/C=C/C(C)=C/C=C/C(C)=C/C(=O)N[C@@H](CS(=O)O)C(=O)O)C(C)(C)CCC1 (stereo in doubt) [I-2, N-(all-trans-Retinoyl)-L-cysteinesulfinic acid]
minimal lethal dose [1]: above 100 mg/kg body weight

CC(=O)O[C@H]1C(=O)[C@@]2(C)[C@H]([C@H](OC(=O)c3ccccc3)[C@]3(O)C[C@H](OC(=O)[C@H](O)[C@@H](NC(=O)c4ccccc4)c4ccccc4)C(C)=C1C3(C)C)[C@]1(OC(C)=O)CO[C@@H]1C[C@@H]2O [Paclitaxel, paclitaxel, reference compound]
inhibition at 0.01 µM ([2]; Homo sapiens, MDA-MB-231, cytotoxic drug alone 10^-8 mol/L, average of positive controls in medium with 5% FBS, normal saline and saline with 2,3 mM CaCl2, read-out: Cell Growth Inhibition, %): 43.3%
inhibition at 0.001 µM ([2]; Homo sapiens, MDA-MB-231, cytotoxic drug alone 10^-9 mol/L, average of positive controls in medium with 5% FBS, normal saline and saline with 2,3 mM CaCl2, read-out: Cell Growth Inhibition, %): 27.3%
IC50 ([2]; Homo sapiens, MDA-MB-231, cytotoxic drug alone, average of positive controls, calculated from three concentrations, read-out: IC50 mol/L (a)): 17 nM
Tumor Cell Number, × 10^3 ([2]; cytotoxic drug alone 10^-7 mol/L, average of positive controls in medium with 5% FBS, normal saline and saline with 2,3 mM CaCl2): 16.0±0.72 × 10^3 and 16.6±0.86 × 10^3
Cell Growth Inhibition, % [2, 6]: 43.9* %
Tumor Cell Number, × 10^3 [2, 6]: 32.2±1.60 × 10^3 and 32.8±1.07 × 10^3
Cell Growth Inhibition, % [2, 7]: 27.7* %
Tumor Cell Number, × 10^3 [2, 7]: 41.3±1.93 × 10^3 and 42.3±1.55 × 10^3
inhibition at 0.1 µM ([3]; Homo sapiens, SK-OV-3, cytotoxic drug 10^-7 mol/L (100 nM), working solutions in medium with 5% FBS): 71.1%
inhibition at 0.01 µM ([3]; Homo sapiens, SK-OV-3, cytotoxic drug 10^-8 mol/L, working solutions in medium with 5% FBS): 59.9%
inhibition at 0.001 µM ([3]; Homo sapiens, SK-OV-3, cytotoxic drug 10^-9 mol/L, working solutions in medium with 5% FBS): 24.8%
IC50 ([3]; Homo sapiens, SK-OV-3, as concentration of cytotoxic drug, medium with 5% FBS, calculated from three concentrations, read-out: IC50 mol/L (a)): 4.5 nM
Tumor Cell Number, × 10^3 ([3]; cytotoxic drug 10^-7 mol/L (100 nM), working solutions in medium with 5% FBS): 14.1 ± 0.98 × 10^3
Tumor Cell Number, × 10^3 ([3]; cytotoxic drug 10^-7 mol/L (100 nM), working solutions in medium with 5% FBS, listed as paclitaxel): 14.6 ± 0.82 × 10^3
Tumor Cell Number, × 10^3 ([3]; cytotoxic drug 10^-8 mol/L, working solutions in medium with 5% FBS): 19.9 ± 1.45 × 10^3
Tumor Cell Number, × 10^3 ([3]; cytotoxic drug 10^-9 mol/L, working solutions in medium with 5% FBS): 37.3 ± 1.80 × 10^3

COC(=O)[C@H](CS(=O)(=O)O)NC(=O)\C=C(C)/C=C/C=C(C)/C=C/C1=C(C)CCCC1(C)C [compound II-1a, N-(13-cis-retinoyl)-L-cysteic acid methyl ester]
inhibition at 0.1 µM ([4]; Homo sapiens, A549, compound alone 10^-7 mol/L, in A (saline with […] CaCl2)): 34.4%
inhibition at 0.1 µM ([4]; Homo sapiens, A549, compound alone 10^-7 mol/L, in B (normal saline)): 25.6%
increase in cell growth inhibition in A over B at 0.1 µM ([4]; Homo sapiens, A549, compound alone 10^-7 mol/L, read-out: Cell growth inhibition in A compared to that in B was increased by): 11.8%
inhibition at 0.01 µM ([4]; Homo sapiens, A549, compound alone 10^-8 mol/L, in A (saline with […] CaCl2)): 26.9%
inhibition at 0.01 µM ([4]; Homo sapiens, A549, compound alone 10^-8 mol/L, in B (normal saline)): 15.6%
increase in cell growth inhibition in A over B at 0.01 µM ([4]; Homo sapiens, A549, compound alone 10^-8 mol/L, read-out: Cell growth inhibition in A compared to that in B was increased by): 13.4%
inhibition at 0.001 µM ([4]; Homo sapiens, A549, compound alone 10^-9 mol/L, in A (saline with […] CaCl2)): 20.4%
inhibition at 0.001 µM ([4]; Homo sapiens, A549, compound alone 10^-9 mol/L, in B (normal saline)): 7.2%
increase in cell growth inhibition in A over B at 0.001 µM ([4]; Homo sapiens, A549, compound alone 10^-9 mol/L, read-out: Cell growth inhibition in A compared to that in B was increased by): 14.3%
number of viable cells [4, 8]: 41.5 ± 1.80 × 10^3
number of viable cells [4, 9]: 47.1 ± 1.43 × 10^3
number of viable cells [4, 10]: 51.8 ± 2.48 × 10^3
cell growth inhibition in (A) compared to compound in B [4, 11]: ~12%
cell growth inhibition reached on increase of the concentration, in (B) ([4]; sodium salt, range 10^-9 to 10^-7 M, dilution in normal saline (B)): ~26%
inhibition at 0.1 µM ([2]; Homo sapiens, MDA-MB-231, 48 h, compound alone, final concentration 10^-7 mol/L, working solutions in MEM with 5% FBS, two days, read-out: cell growth inhibition): 46.5%
inhibition at 0.01 µM ([2]; Homo sapiens, MDA-MB-231, 48 h, compound alone, final concentration 10^-8 mol/L, working solutions in MEM with 5% FBS, two days, read-out: cell growth inhibition): 44.1%
inhibition at 0.001 µM ([2]; Homo sapiens, MDA-MB-231, 48 h, compound alone, final concentration 10^-9 mol/L, working solutions in MEM with 5% FBS, two days, read-out: cell growth inhibition): 38.8%
inhibition at 0.1 µM ([2]; Homo sapiens, MDA-MB-231, compound alone 10^-7 mol/L, in A (saline with […] CaCl2), read-out: cell growth inhibition): 48.9%
inhibition at 0.1 µM ([2]; Homo sapiens, MDA-MB-231, compound alone 10^-7 mol/L, in B (normal saline), read-out: cell growth inhibition): 40.5%
inhibition at 0.1 µM ([2]; Homo sapiens, MDA-MB-231, compound alone 10^-7 mol/L, read-out: Cell growth inhibition in A compared to that in B was increased by): 14.1%
inhibition at 0.01 µM ([2]; Homo sapiens, MDA-MB-231, compound alone 10^-8 mol/L, in A (saline with […] CaCl2), read-out: cell growth inhibition): 41.7%
inhibition at 0.01 µM ([2]; Homo sapiens, MDA-MB-231, compound alone 10^-8 mol/L, in B (normal saline), read-out: cell growth inhibition): 31.2%
inhibition at 0.01 µM ([2]; Homo sapiens, MDA-MB-231, compound alone 10^-8 mol/L, read-out: Cell growth inhibition in A compared to that in B was increased by): 15.2%
inhibition at 0.001 µM ([2]; Homo sapiens, MDA-MB-231, compound alone 10^-9 mol/L, in A (saline with […] CaCl2), read-out: cell growth inhibition): 35.8%
inhibition at 0.001 µM ([2]; Homo sapiens, MDA-MB-231, compound alone 10^-9 mol/L, in B (normal saline), read-out: cell growth inhibition): 23%
inhibition at 0.001 µM ([2]; Homo sapiens, MDA-MB-231, compound alone 10^-9 mol/L, read-out: Cell growth inhibition in A compared to that in B was increased by): 16.6%
number of viable cells [2, 8]: 34.1 ± 1.97 × 10^3
number of viable cells [2, 9]: 39.4 ± 2.28 × 10^3
number of viable cells [2, 10]: 44.1 ± 2.24 × 10^3
number of viable cells ([2]; compound alone, final concentration 10^-7 mol/L, working solutions in MEM with 5% FBS, two days): 31.3 ± 2.15 × 10^3
number of viable cells ([2]; compound alone, final concentration 10^-8 mol/L, working solutions in MEM with 5% FBS, two days): 32.7 ± 2.06 × 10^3
number of viable cells ([2]; compound alone, final concentration 10^-9 mol/L, working solutions in MEM with 5% FBS, two days): 35.8 ± 2.50 × 10^3
cell growth inhibition in (A) compared to compound in B [2, 11]: ~14%
minimal lethal dose [5]: above 100 mg/kg body weight
mortality ([5]; 100 mg/kg): did not produce mortality
